What is called IC50 is the point on the concentration scale where inhibition reaches its midpoint. The low end stands for inhibition by little substance, the high end for a need for much substance.

These results are taken from patent US9133104B2 (Chroma Therapeutics Ltd., priority 2005, dated 2015).

For assay [1], the target named is T1, histone deacetylase activity (HeLa nuclear extract).
T1 construct: Histone deacetylase activity from crude nuclear extract derived from HeLa cells was used for screening
The experiment in a line: HDAC fluorescent activity assay (Biomol Fluor de Lys), HeLa nuclear extract. In kind it is biochemical. The following applies: Fluor de Lys substrate, IC50 range. The method, boiled down:
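Crude HeLa nuclear extract (20 mM Hepes, 100 mM KCl, 0.2 mM EDTA, 0.5 mM DTT, 0.2 mM PMSF, 20% glycerol) incubated with acetyl-lysine Fluor de Lys substrate ± inhibitor; developer generates fluorophore. Background-subtracted % of vehicle control; IC50 from eight-point variable-slope sigmoidal fit.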

Another assay relates to U937 cancer cell line. The experiment in a line: Cell inhibition assay (SRB cell viability), U937. It counts as cell-based. The note with it: Homo sapiens, U-937, U937 cells, 72 h, IC50 range. The method, boiled down: (§1)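 Log-phase Hela, U937 and HUT cells were seeded at 1000 cells/well, grown 24 h, then exposed to compound (20 uM final) for 72 h. Viability was read by sulphorhodamine B staining and expressed as % inhibition relative to DMSO control. IC50 values came from sigmoidal variable-slope fits of eight concentrations.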

For a further assay, the system named is Hela cancer cell line. The experiment in a line: Cell inhibition assay (SRB cell viability), Hela. In kind it is cell-based. The following applies: Homo sapiens, HeLa, 72 h, Hela cells, IC50 range. The method, boiled down:
as §1

The next assay relates to HUT cancer cell line. Nature of the assay: Cell inhibition assay (SRB cell viability), HUT. It counts as cell-based. The note with it: HUT cells, 72 h, IC50 range. The method, boiled down:
as §1

With `O=C(NO)c1cc2ccc(CNc3cccc(CN[C@H](C(=O)OC4CCCC4)c4ccccc4)c3)cc2s1` [Compound 130, (S)-{3-[(2-Hydroxycarbamoyl-benzo[b]thiophen-6-ylmethyl)-amino]-benzyl-amino}-phenyl-acetic acid cyclopentyl ester], the IC50 in assay [1] was above 1000 nM; in the assay with U937 cancer cell line it was 330 to 3300 nM; in the assay with Hela cancer cell line it was above 3300 nM; in the assay with HUT cancer cell line it was above 3300 nM.

Regarding `O=C(NO)c1cc2ccc(CNc3cccc(CN[C@H](C(=O)OC4CCCC4)C4CCCCC4)c3)cc2s1` [Compound 131, (S)-{3-[(2-Hydroxycarbamoyl-benzo[b]thiophen-6-ylmethyl)-amino]-benzylamino}-cyclohexyl-acetic acid cyclopentyl ester], the half-maximal inhibitory concentration (IC50) in assay [1] is above 1000 nM; in the assay with U937 cancer cell line, 330 to 3300 nM; with Hela cancer cell line, above 3300 nM; in the assay on HUT cancer cell line it was above 3300 nM.

Turning to `CC(C)(C)OC[C@H](NCc1cccc(NCc2ccc3cc(C(=O)NO)sc3c2)c1)C(=O)OC1CCCC1` [Compound 132, (S)-3-tert-Butoxy-2-{3-[(2-hydroxycarbamoyl-benzo[b]thiophen-6-ylmethyl)-amino]-benzylamino}-propionic acid cyclopentyl ester], the IC50 in assay [1] is 101 to 1000 nM; with U937 cancer cell line, 330 to 3300 nM; in the assay on Hela cancer cell line, above 3300 nM; in the assay on HUT cancer cell line, 330 to 3300 nM.

For the molecule `CC(C)C[C@H](NCc1cccc(NCc2ccc3cc(C(=O)NO)sc3c2)c1)C(=O)OC1CCCC1` [Compound 133, (S)-2-{3-[(2-Hydroxycarbamoyl-benzo[b]thiophen-6-ylmethyl)-amino]-benzylamino}-4-methyl-pentanoic acid cyclopentyl ester], the IC50 in assay [1] was 101 to 1000 nM; in the assay with U937 cancer cell line, 330 to 3300 nM; in the assay with Hela cancer cell line, 330 to 3300 nM; in the assay with HUT cancer cell line it was above 3300 nM.
